Measured values taken from paper PMC6017046, “Synergistic Promotion on Tyrosinase Inhibition by Antioxidants” (Molecules : A Journal of Synthetic Chemistry and Natural …, 2018).

What was measured:
[1] = DPPH free radical-scavenging capacity assay; conditions: 0.1 mmol/L DPPH, 30 min, absorbance 517 nm; read-out: IC50 of antioxidant solutions (DPPH scavenging / DPPH clearance rate)
Experimental: The DPPH free radical-scavenging capacity of the samples are determined according to the method of a previous study with slight modifications. Samples (100l) of various concentrations are added to 100 µL of 0.1 mmol/L DPPH solution in methanol at room temperature. After 30 min, the absorbance is measured at 517 nm with a UV-visible spectrophotometer (MAPADA UV-6100PCS, Shanghai, China). The percentage of free radical (DPPH) scavenging activity (I%) is calculated according to following formula: I%=ODck−ODsample/ODck×100 where ODck is the absorbance of the control reaction, which involves all the reagents except the test compound, and ODsample is the absorbance of the test compound.

[2] = molecular target: T1, Mushroom tyrosinase (Agaricus bisporus, UniProt C7FF04); experiment: Mushroom tyrosinase inhibitory assay, L-tyrosine as substrate; format: biochemical
Experimental: Inhibitory activity against tyrosinase is examined through an improved spectrophotometric method using L-DOPA and L-tyrosine as substrates. […] The reaction mixture is incubated at 37 °C for 15 min. Mushroom tyrosinase (40 µL, 200 units/mL) is added to the reaction mixture and incubated at 30 °C for 20 min.
(§1) Dopachrome formation is monitored at 475 nm with a UV-visible spectrophotometer (MAPADA UV-6100PCS). The rate of the inhibition of tyrosinase activity (I%) is determined according to the following formula: I%=(A2−A1)−(B2−B1)/(A2−A1)×100 where A1 and A2 are the absorbance values of the blank at 475 nm at 0 min and 20 min, respectively, and B1 and B2 is the absorbance levels of the test sample at 475 nm at 0 min and 20 min, respectively.
The 50% inhibition concentration (IC50) value is determined with SPSS 17.0 statistical software (International Business Machines Corporatio, Armonk, NY, USA). All experiments are performed at least in triplicate. Data are analyzed by unpaired Student’s t-test, followed by Dunnett’s multiple comparison test (SPSS version 17.0). P values lower than 0.05 are considered significant. The interactions are calculated using combination index (CI) according to [22]: CI=IC50amix/IC50a+IC50bmix/IC50b where IC50a and IC50b are obtained from pure compounds, and IC50amix is the concentration of individual compound in the mixture that cause 50% inhibition. Obtained CI values equal, smaller, or greater than 1 indicate an additive, synergistic, or antagonistic effect, respectively.

[3] = molecular target: T1, Mushroom tyrosinase; conditions: ref 1 (GLA), ref 25 (OXYR), ref 26 (RES); cited from earlier work
[4] = molecular target: T1, Mushroom tyrosinase; experiment: Mushroom tyrosinase inhibitory assay, L-DOPA as substrate; format: biochemical; conditions: read-out: IC50, tyrosinase activity, single compounds
Experimental: The reaction mixture is incubated at 37 °C for 15 min. Subsequently, 40 µL of 100 units/mL mushroom tyrosinase is added to the reaction mixtures and incubated at 37 °C for 20 min. […] The reaction mixture is incubated at 37 °C for 15 min. Subsequently, 40 µL of 5 mM L-DOPA is added to the reaction mixture and incubated at 30 °C for 20 min.
as §1
The 50% inhibition concentration (IC50) value is determined with SPSS 17.0 statistical software (International Business Machines Corporatio, Armonk, NY, USA). All experiments are performed at least in triplicate. Data are analyzed by unpaired Student’s t-test, followed by Dunnett’s multiple comparison test (SPSS version 17.0). P values lower than 0.05 are considered significant. […]

[5] = molecular target: T2, tyrosinase activity of PIG1 cells (Homo sapiens, UniProt P14679); experiment: Intracellular tyrosinase activity assay in UVB-irradiated PIG1 cells (L-DOPA oxidation); format: cell-based; conditions: 300 mJ/cm^2 UVB, 24 h, L-DOPA substrate, read-out: IC50, inhibition against tyrosinase activities
T2 construct: The intracellular tyrosinase activity of the PIG1 cells; host or cells: PIG1 immortalized human epidermal melanocytes
T2 sequence (P14679 19-529): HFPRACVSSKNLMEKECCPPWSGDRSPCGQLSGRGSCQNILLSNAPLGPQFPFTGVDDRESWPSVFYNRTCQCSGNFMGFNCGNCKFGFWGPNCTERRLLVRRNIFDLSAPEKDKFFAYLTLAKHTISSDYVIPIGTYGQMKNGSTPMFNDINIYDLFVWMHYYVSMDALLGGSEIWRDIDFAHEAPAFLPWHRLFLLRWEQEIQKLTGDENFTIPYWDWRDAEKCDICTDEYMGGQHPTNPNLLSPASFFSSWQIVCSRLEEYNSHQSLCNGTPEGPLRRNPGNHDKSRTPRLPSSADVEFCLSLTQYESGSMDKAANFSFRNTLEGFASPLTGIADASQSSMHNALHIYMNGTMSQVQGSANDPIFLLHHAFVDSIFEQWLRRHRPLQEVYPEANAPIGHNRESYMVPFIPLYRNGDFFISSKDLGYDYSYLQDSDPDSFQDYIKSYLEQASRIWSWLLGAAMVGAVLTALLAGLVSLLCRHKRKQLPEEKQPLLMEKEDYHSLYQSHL
Experimental: Immortalized human epidermal melanocyte cells from cell line PIG1 are obtained from Shanghai Guandao Bio-engineering Ltd. Co. (Shanghai, China). PIG1 cells are cultured at 37 °C with 5% CO2 in Medium 254 (#M-254-500, Thermo Fisher Scientific, New York, NY, USA) supplemented with human melanocyte growth supplement-2 (Thermo Fisher Scientific, New York, NY, USA) and 5% (v/v) fetal bovine serum (Thermo Fisher Scientific, New York, NY, USA).
The UVB source employed in this study is a Sigma SH4B light therapy device (Shanghai SIGMA High-tech Co., Ltd., Shanghai, China). […] UVB irradiation treatment is conducted when cells reached approximately 70% confluence according to the methods of Zeng et al. [19]. Before UVB irradiation, the supernatant is removed and replaced with PBS. […] The control group receives the same treatment as the UVB group but is not administered any drug.
PIG1 cells (1 × 10^4 cells/well) are seeded in 96-well plates and incubated for 24 h in CO2 until 70–80% confluence is reached. Subsequently, the complete medium is replaced with 100 µL of PBS, and the cells are exposed to 300 mJ/cm^2 UVB irradiation. […] The intracellular tyrosinase activity of the PIG1 cells are estimated by measuring the L-DOPA oxidation capacity according to the method of Rong et al. [21]. […] The products of the reaction are measured by reading the absorbance at 475 nm.

T1 sequence (C7FF04 1-392): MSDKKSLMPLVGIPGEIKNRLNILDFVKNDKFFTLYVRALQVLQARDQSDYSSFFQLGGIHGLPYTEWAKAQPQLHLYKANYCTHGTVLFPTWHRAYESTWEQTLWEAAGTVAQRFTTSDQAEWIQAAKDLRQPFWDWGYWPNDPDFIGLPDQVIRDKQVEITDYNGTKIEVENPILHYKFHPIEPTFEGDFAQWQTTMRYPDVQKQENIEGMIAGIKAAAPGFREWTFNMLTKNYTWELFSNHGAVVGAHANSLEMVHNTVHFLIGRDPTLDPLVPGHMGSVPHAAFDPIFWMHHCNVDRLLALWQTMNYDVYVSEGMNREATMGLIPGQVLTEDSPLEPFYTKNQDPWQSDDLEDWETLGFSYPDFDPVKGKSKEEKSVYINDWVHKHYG

For `CC1(C)C=Cc2c(ccc3c2OC[C@@H](c2ccc(O)cc2O)C3)O1` [GLA, Glabridin], the IC50 [1] is listed as 458 ± 0.037 µM, the IC50 [2] is listed as 1500 ± 30 nM and the “mode of tyrosinase inhibition” value [3] is listed as “non-competitive”.

For `Oc1cc(O)cc(/C=C/c2ccc(O)cc2O)c1` [OXYR, Oxyresveratrol], the IC50 [1] is given as 76 ± 0.07 µM, the IC50 [2] is given as 2500 ± 60 nM and the “mode of tyrosinase inhibition” value [3] is given as “non-competitive”.

`CC(c1ccccc1)c1ccc(O)cc1O` (centres unmarked) [PR, Phenylethylresorcinol] showed an IC50 [1] of 119 ± 0.07 µM, an IC50 ([2]; L-Tyrosine as substrate, read-out: IC50, tyrosinase activity, single compounds) of 280 ± 30 nM and an IC50 [4] of 35.5 ± 0.06 µM. For the same compound, the “mode of tyrosinase inhibition” value [3] was “non-competitive”.

`Oc1ccc(/C=C/c2cc(O)cc(O)c2)cc1` [RES, Resveratrol] gave an IC50 [5] of over 100 µM, an IC50 [1] of 142 ± 0.03 µM and an IC50 [2] of 23000 ± 50 nM. The “mode of tyrosinase inhibition” value [3] was “Kcat or suicide inhibitor”.
